Measured values reported in patent US10640507B2, “PBD antibacterial agents” (KING'S COLLEGE LONDON, priority 2015, dated 2020).
Converted amounts (≈) assume the structure as drawn. Where two headings read alike, the source gives them in different places.

Tests used:
Type in all cases: cell-based
[1] = test system: E. faecalis VRE NCTC 12201; test: General MIC protocol, Gram positive panel
Method: (§1) General Minimum Inhibitory Concentration (MIC) Protocol
(§2) 1. Grow up cultures of bacterial strains to be tested overnight.
(§3) 2. Dilute down overnight cultures to concentration of 1×10^6 bacteria/ml (OD0.01) in Tryptic soy broth (TSB).
(§4) 3. Add 100 μl of TSB media to column 2-column 12 in 96 well plate (keeping column 1 clear).
(§5) 4. Make up compound to a concentration of 64 μg/ml in water (or alternatively to twice the chosen maximum concentration to be tested).
(§6) 5. Add 100 μl of antibiotic solution to the 1st and 2nd columns.
(§7) 6. Using a multichannel pipette take 100 μl from the 2nd column wells and pipette into 3rd column wells and repeat down the 96 well plate (remembering to include controls i.e. uninfected media and media with no antibiotic).
(§8) 7. To each well (except uninfected control row H) add 100 μl of bacterially infected media at a concentration of 1×10^6/ml.
(§9) 8. This dilutes down the concentration of the antibiotic by half (top dose is therefore 32 μg/ml in column 1) and also gives you a starting bacterial concentration of 5×10^5/ml.
(§10) 9. Wrap plate with parafilm to prevent evaporation.
(§11) 10. Leave at desired temperature (37° C. unless specified elsewhere) for 20 hours.
(§12) 11. Next day check plates for growth and measure optical density (i.e. absorbance) at a wavelength of 600 nm (OD600).
(§13) An example of such a plate is shown in FIG. 1 where column A represents wells that receive the top dose 100 μl; column B represents wells that receive the top dose 100 μl+100 μl TSB; and column C represents wells that receive 100 μl TSB. Row H which is marked by a box labelled D represents a blank where the cells receive no bacteria.

E. faecalis VSE NCTC 775 = test: General MIC protocol, Gram positive panel; details: Enterococcus faecalis, NCTC775; VSE 775
Method: as §1, §2, §3, §4, §5, §6, §7, §8, §9, §10, §11, §12, §13

[2] = test system: E. faecium VRE NCTC 12204; test: General MIC protocol, Gram positive panel
Method: as §1, §2, §3, §4, §5, §6, §7, §8, §9, §10, §11, §12, §13

EMRSA-15 = test: General MIC protocol, Gram positive panel
Method: as §1, §2, §3, §4, §5, §6, §7, §8, §9, §10, §11, §12, §13

EMRSA-16 = test: General MIC protocol, Gram positive panel
Method: as §1, §2, §3, §4, §5, §6, §7, §8, §9, §10, §11, §12, §13

[3] = test system: methicillin sensitive S. aureus ATTC 9144 (NCTC 6571); test: General MIC protocol, Gram positive panel; details: Staphylococcus aureus, MSSA / NCTC 6571; MSSA 9144
Method: as §1, §2, §3, §4, §5, §6, §7, §8, §9, §10, §11, §12, §13

A. baumannii AYE = test: General MIC protocol, Gram negative; details: Acinetobacter baumannii
Method: as §1, §2, §3, §4, §5, §6, §7, §8, §9, §10, §11, §12, §13

A. baumannii NCTC 17978 = test: General MIC protocol, Gram negative; details: Acinetobacter baumannii, NCTC17978
Method: as §1, §2, §3, §4, §5, §6, §7, §8, §9, §10, §11, §12, §13

K. pneumonia M6 = test: General MIC protocol, Gram negative; details: Klebsiella pneumoniae; KP-M6
Method: as §1, §2, §3, §4, §5, §6, §7, §8, §9, §10, §11, §12, §13

K. pneumonia NCTC 13368 = test: General MIC protocol, Gram negative; details: Klebsiella pneumoniae, NCTC13368
Method: as §1, §2, §3, §4, §5, §6, §7, §8, §9, §10, §11, §12, §13

P. aeruginosa NCTC 13437 = test: General MIC protocol, Gram negative; details: Pseudomonas aeruginosa, NCTC13437
Method: as §1, §2, §3, §4, §5, §6, §7, §8, §9, §10, §11, §12, §13

P. aeruginosa PA01 = test: General MIC protocol, Gram negative; details: Pseudomonas aeruginosa, PA01, PA01
Method: as §1, §2, §3, §4, §5, §6, §7, §8, §9, §10, §11, §12, §13

[4] = test system: HeLa (Cervical cancer cell line); test: MTT cytotoxicity assay; details: Homo sapiens, read-out: IC50 HeLa (Cervical cancer cell line)
Method: (§14) Two immortalised human cell lines, HeLa and WI38 were used for cytotoxicity screening of the compounds. HeLa is a human cervical cancer cell line and WI38 is a normal healthy cell line. The cell lines were obtained from the American Type Culture Collection. The cell-lines were maintained in monolayer culture in 75 cm2 flasks (TPP, Switzerland) under a humidified 5% CO2 atmosphere at 37° C. The HeLa cell line was maintained in Dulbecco's Modified Eagles Media (DMEM; Invitrogen) supplemented with foetal bovine serum (10% v/v; Invitrogen), L-glutamine (2 mM; Invitrogen), non-essential amino acids (1×; Invitrogen) and Penicillin-Streptomycin (1% v/v, Invitrogen). For WI38, Eagle's Minimum Essential Medium, and Penicillin-Streptomycin (1% v/v, Invitrogen) and foetal bovine serum (10%, nvitrogen) was used. For passaging, cells were washed with phosphate buffered saline [PBS] (GIBCO 14040, Invitrogen, UK), incubated with trypsine (GIBCO 25300, Invitrogen, UK), and re-seeded into fresh medium. For seeding, cells were counted using a Neubauer haemocytometer (Assistant, Germany) by microscopy (Nikon, USA) on a non-adherent suspension of cells that were washed in PBS, trypsinised, centrifuged at 8° C. at 8000 rpm for 5 min and re-suspended in fresh medium.
(§15) The cells were grown in normal cell culture conditions at 37° C. under a 5% CO2 humidified atmosphere using appropriate medium. The cell count was adjusted to 10^5 cells/ml/ and 20,000 cells were added per well. The cells were incubated for 24 hours and 1 μl of the appropriate inhibitor concentrations were to the wells in triplicates. After 24 h of continuous exposure to each compound, the cytotoxicity was determined using the MIT (3-(4,5-Dimethylthiazol-2-yl)-2,5-diphenyltetrazolium bromide) (Lancaster Synthesis Ltd, UK) colorimetric assay. Absorbance was quantified by spectrophotometry at λ=570 nm (Envision Plate Reader, PerkinElmer, USA). IC50 values were calculated by a dose-response analysis using the Prism Graphpad Prism® software. The cytotoxicity results are shown below in Table 12.

WI38 (Healthy cell line) = test: MTT cytotoxicity assay; details: Homo sapiens, read-out: IC50 WI38 (Healthy cell line)
Method: as §14, §15

[5] = WI-38, MTT, 24 h continuous exposure, highest concentration tested 20 μM

## COc1cc2c(cc1OCCCC(=O)Nc1cc(C(=O)Nc3ccc4oc(C(=O)N5CCOCC5)cc4c3)n(C)c1)N=C[C@@H]1CCCN1C2=O [PP-A147, (S)-4-(4-((7-methoxy-5-oxo-2,3,5,11a-tetrahydro-1H-benzo[e]pyrrolo[1,2-a][1,4]diazepin-8-yl)oxy)butanamido)-1-methyl-N-(2-(morpholine-4-carbonyl)benzofuran-5-yl)-1H-pyrrole-2-carboxamide]
[1]
  MIC: < 0.125 µg/mL
E. faecalis VSE NCTC 775
  MIC: < 0.125 µg/mL
[2]
  MIC: < 0.125 µg/mL
EMRSA-15
  MIC: < 0.125 µg/mL
EMRSA-16
  MIC: 0.25 µg/mL (≈ 0.366 µM)
[3]
  MIC: < 0.125 µg/mL
A. baumannii AYE
  MIC: 8 µg/mL (≈ 11.7 µM)
A. baumannii NCTC 17978
  MIC: 8 µg/mL (≈ 11.7 µM)
K. pneumonia M6
  MIC: 0.5 to 1 µg/mL (≈ 0.732 to 1.46 µM)
K. pneumonia NCTC 13368
  MIC: 32 to 64 µg/mL (≈ 46.9 to 93.7 µM)
P. aeruginosa NCTC 13437
  MIC: 64 µg/mL (≈ 93.7 µM)
P. aeruginosa PA01
  MIC: > 128 µg/mL
[4]; 24 h
  IC50: > 20 µM
WI38 (Healthy cell line); WI-38, 24 h
  IC50: > 20 µM

## COc1cc2c(cc1OCCCC(=O)Nc1cc(C(=O)Nc3ccc4oc(C(=O)N(C)C)cc4c3)n(C)c1)N=C[C@@H]1CCCN1C2=O [PP-A159, (S)—N-(2-(dimethylcarbamoyl)benzofuran-5-yl)-4-(4-((7-methoxy-5-oxo-2,3,5,11a-tetrahydro-1H-benzo[e]pyrrolo[1,2-a][1,4]-diazepin-8-yl)oxy)butanamido)-1-methyl-1H-pyrrole-2-carboxamide]
[1]
  MIC: 0.5 µg/mL (≈ 0.78 µM)
E. faecalis VSE NCTC 775
  MIC: < 0.125 µg/mL
[2]
  MIC: < 0.125 µg/mL
EMRSA-15
  MIC: < 0.125 µg/mL
EMRSA-16
  MIC: < 0.125 µg/mL
[3]
  MIC: < 0.125 µg/mL
A. baumannii AYE
  MIC: 4 µg/mL (≈ 6.24 µM)
A. baumannii NCTC 17978
  MIC: 4 µg/mL (≈ 6.24 µM)
K. pneumonia M6
  MIC: 0.5 µg/mL (≈ 0.78 µM)
K. pneumonia NCTC 13368
  MIC: 16 µg/mL (≈ 25 µM)
P. aeruginosa NCTC 13437
  MIC: 32 to 64 µg/mL (≈ 49.9 to 99.9 µM)
P. aeruginosa PA01
  MIC: 128 µg/mL (≈ 200 µM)
[4]; MTT, 24 h continuous exposure
  IC50: 18.5 µM
WI38 (Healthy cell line); [5]
  IC50: > 20 µM

## COc1cc2c(cc1OCCCC(=O)Nc1cc(C(=O)Nc3ccc4oc(C(=O)N5CCCCC5)cc4c3)n(C)c1)N=C[C@@H]1CCCN1C2=O [PP-B26, (S)-4-(4-((7-methoxy-5-oxo-2,3,5,11a-tetrahydro-1H-benzo-[e]pyrrolo[1,2-a][1,4]diazepin-8-yl)oxy)butanamido)-1-methyl-N-(2-(piperidine-1-carbonyl)benzofuran-5-yl)-1H-pyrrole-2-carboxamide]
[1]
  MIC: < 0.125 µg/mL
E. faecalis VSE NCTC 775
  MIC: 0.25 µg/mL (≈ 0.367 µM)
[2]
  MIC: < 0.125 µg/mL
EMRSA-15
  MIC: 0.25 µg/mL (≈ 0.367 µM)
EMRSA-16
  MIC: 0.5 µg/mL (≈ 0.734 µM)
[3]
  MIC: < 0.125 µg/mL
A. baumannii AYE
  MIC: 2 µg/mL (≈ 2.94 µM)
A. baumannii NCTC 17978
  MIC: 2 µg/mL (≈ 2.94 µM)
K. pneumonia M6
  MIC: 8 µg/mL (≈ 11.8 µM)
K. pneumonia NCTC 13368
  MIC: 64 µg/mL (≈ 94 µM)
P. aeruginosa NCTC 13437
  MIC: 32 µg/mL (≈ 47 µM)
P. aeruginosa PA01
  MIC: 128 µg/mL (≈ 188 µM)
[4]; MTT, 24 h continuous exposure
  IC50: > 20 µM
WI38 (Healthy cell line); [5]
  IC50: > 20 µM

## COc1cc2c(cc1OCCCC(=O)Nc1cc(C(=O)Nc3ccc4sc(C(=O)N5CCOCC5)cc4c3)n(C)c1)N=C[C@@H]1CCCN1C2=O [PP-B16, (S)-4-(4-((7-methoxy-5-oxo-2,3,5,11a-tetrahydro-1H-benzo[e]pyrrolo[1,2-a][1,4]diazepin-8-yl)oxy)butanamido)-1-methyl-N-(2-(morpholine-4-carbonyl)benzo[b]thiophen-5-yl)-1H-pyrrole-2-carboxamide]
[1]
  MIC: < 0.125 µg/mL
E. faecalis VSE NCTC 775
  MIC: < 0.125 µg/mL
[2]
  MIC: < 0.125 µg/mL
EMRSA-15
  MIC: < 0.125 µg/mL
EMRSA-16
  MIC: 0.5 µg/mL (≈ 0.716 µM)
[3]
  MIC: < 0.125 µg/mL
A. baumannii AYE
  MIC: 8 µg/mL (≈ 11.4 µM)
A. baumannii NCTC 17978
  MIC: 8 µg/mL (≈ 11.4 µM)
K. pneumonia M6
  MIC: 64 µg/mL (≈ 91.6 µM)
K. pneumonia NCTC 13368
  MIC: 8 µg/mL (≈ 11.4 µM)
P. aeruginosa NCTC 13437
  MIC: 32 µg/mL (≈ 45.8 µM)
P. aeruginosa PA01
  MIC: 64 µg/mL (≈ 91.6 µM)
[4]; MTT, 24 h continuous exposure
  IC50: > 20 µM
WI38 (Healthy cell line); [5]
  IC50: > 20 µM

## CCOC(=O)c1nc(NC(=O)c2cc3cc(NC(=O)c4cc(NC(=O)CCCOc5cc6c(cc5OC)C(=O)N5CCC[C@H]5C=N6)cn4C)ccc3s2)cn1C [PP-B14, reference compound]
[1]
  MIC: < 0.125 µg/mL
E. faecalis VSE NCTC 775
  MIC: < 0.125 µg/mL
[2]
  MIC: < 0.125 µg/mL
EMRSA-15
  MIC: 0.5 µg/mL (≈ 0.64 µM)
EMRSA-16
  MIC: 1 µg/mL (≈ 1.28 µM)
[3]
  MIC: < 0.125 µg/mL
A. baumannii AYE
  MIC: 64 µg/mL (≈ 82 µM)
A. baumannii NCTC 17978
  MIC: 64 µg/mL (≈ 82 µM)
K. pneumonia M6
  MIC: 128 µg/mL (≈ 164 µM)
K. pneumonia NCTC 13368
  MIC: 128 µg/mL (≈ 164 µM)
P. aeruginosa NCTC 13437
  MIC: 128 µg/mL (≈ 164 µM)
P. aeruginosa PA01
  MIC: > 128 µg/mL
